Data from ChEMBL document CHEMBL1136971, “Nascent structure-activity relationship study of a diastereomeric series of kappa opioid receptor antagonists derived from CJ-15,208” (Bioorg Med Chem Lett, 2009).
Square brackets hold non-standard residues; d marks the D form. Peptide text beside a SMILES is read from it.

Legend:
[1] = biological target: T1, Kappa-type opioid receptor (Homo sapiens, UniProt P41145); experiment: Displacement of [3H]diprenorphine from human cloned kappa opioid receptor by cell based assay
Mu-type opioid receptor [2] = biological target: T2, Mu-type opioid receptor (Homo sapiens, UniProt P35372); experiment: Displacement of [3H]diprenorphine from human cloned mu receptor by cell based assay
[3] = biological target: Delta-type opioid receptor (Homo sapiens, UniProt P41143); experiment: Displacement of [3H]diprenorphine from human cloned delta receptor by cell based assay
Homo sapiens = organism: Homo sapiens; experiment: Ratio of Ki for human cloned mu opioid receptor to Ki for human cloned kappa opioid receptor
[4] = biological target: T1, Kappa-type opioid receptor; experiment: Antagonist activity at human cloned kappa opioid receptor assessed as inhibition of 50 nM U50488H-stimulated GTPgammaS binding by cell based assay; assay type: functional
Mu-type opioid receptor [5] = biological target: T2, Mu-type opioid receptor; experiment: Antagonist activity at human cloned mu opioid receptor assessed as inhibition of 100 nM loperamide-stimulated GTPgammaS binding by cell based assay; assay type: functional
[6] = Antagonist activity at kappa opioid receptor in rabbit vas deferens assessed as reversal of asimadoline-suppressed electrically-stimulated twitch response; assay type: functional, tissue-based; conditions: Oryctolagus cuniculus
[7] = biological target: Kappa-type opioid receptor (Cavia porcellus, UniProt P41144); experiment: Binding affinity to kappa opioid receptor in guinea pig brain membrane; assay type: cell membranes
Mu-type opioid receptor [8] = biological target: Mu-type opioid receptor (Cavia porcellus, UniProt P97266); experiment: Binding affinity to mu opioid receptor in guinea pig brain membrane; assay type: cell membranes
[9] = Binding affinity to delta opioid receptor in guinea pig brain membrane; assay type: cell membranes, Cavia porcellus

Chain of Delta-type opioid receptor (P41143 whole entry): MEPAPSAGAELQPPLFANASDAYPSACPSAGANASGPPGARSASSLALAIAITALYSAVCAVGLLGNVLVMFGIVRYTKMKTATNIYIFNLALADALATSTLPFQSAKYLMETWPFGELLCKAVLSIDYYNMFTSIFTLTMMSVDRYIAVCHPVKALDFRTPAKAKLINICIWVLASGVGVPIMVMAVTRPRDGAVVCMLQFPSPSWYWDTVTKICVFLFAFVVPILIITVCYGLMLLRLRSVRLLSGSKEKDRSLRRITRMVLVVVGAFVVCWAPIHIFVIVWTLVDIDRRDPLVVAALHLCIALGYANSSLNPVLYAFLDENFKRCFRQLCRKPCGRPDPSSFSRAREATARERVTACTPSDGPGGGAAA
T2 sequence (P35372 whole entry): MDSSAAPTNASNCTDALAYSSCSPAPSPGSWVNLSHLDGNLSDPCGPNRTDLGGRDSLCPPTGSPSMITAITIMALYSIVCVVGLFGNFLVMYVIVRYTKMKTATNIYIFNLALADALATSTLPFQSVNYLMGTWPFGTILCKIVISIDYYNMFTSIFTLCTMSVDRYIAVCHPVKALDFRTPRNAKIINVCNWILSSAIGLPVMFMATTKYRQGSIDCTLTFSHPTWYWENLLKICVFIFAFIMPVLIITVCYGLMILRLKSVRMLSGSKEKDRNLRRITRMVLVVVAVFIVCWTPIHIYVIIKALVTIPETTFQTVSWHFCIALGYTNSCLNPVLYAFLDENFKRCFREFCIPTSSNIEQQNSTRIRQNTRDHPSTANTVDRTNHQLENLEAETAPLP
T1 sequence (P41145 whole entry): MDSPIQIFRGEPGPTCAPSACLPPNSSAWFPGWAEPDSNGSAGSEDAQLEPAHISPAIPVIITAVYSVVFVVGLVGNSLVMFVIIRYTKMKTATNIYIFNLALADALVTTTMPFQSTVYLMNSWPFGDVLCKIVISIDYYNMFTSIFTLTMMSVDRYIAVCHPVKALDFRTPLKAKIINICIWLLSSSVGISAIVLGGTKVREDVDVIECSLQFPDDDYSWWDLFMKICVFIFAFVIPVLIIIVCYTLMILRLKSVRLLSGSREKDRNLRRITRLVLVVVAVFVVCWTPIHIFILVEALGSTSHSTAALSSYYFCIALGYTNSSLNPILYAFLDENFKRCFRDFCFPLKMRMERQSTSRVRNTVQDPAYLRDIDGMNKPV
Chain of Mu-type opioid receptor (Cavia porcellus, UniProt P97266) (P97266 whole entry): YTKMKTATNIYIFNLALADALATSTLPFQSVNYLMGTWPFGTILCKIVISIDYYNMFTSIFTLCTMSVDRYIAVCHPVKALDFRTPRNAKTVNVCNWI
Chain of Kappa-type opioid receptor (Cavia porcellus, UniProt P41144) (P41144 whole entry): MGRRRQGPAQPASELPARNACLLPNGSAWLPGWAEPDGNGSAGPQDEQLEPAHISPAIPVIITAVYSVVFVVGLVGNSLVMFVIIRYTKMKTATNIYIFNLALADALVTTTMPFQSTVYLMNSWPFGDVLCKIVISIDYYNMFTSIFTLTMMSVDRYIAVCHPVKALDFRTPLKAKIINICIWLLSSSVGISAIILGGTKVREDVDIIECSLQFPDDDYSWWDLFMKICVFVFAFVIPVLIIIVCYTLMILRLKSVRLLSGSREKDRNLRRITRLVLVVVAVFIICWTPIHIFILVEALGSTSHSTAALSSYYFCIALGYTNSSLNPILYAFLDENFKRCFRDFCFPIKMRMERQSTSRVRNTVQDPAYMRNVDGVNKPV

Row | Structure (SMILES) | Ki [1] | Ki (Mu-type opioid receptor [2]) | Ki [3] | Ratio Ki (Homo sapiens) | IC50 [4] | IC50 (Mu-type opioid receptor [5]) | EC50 [6] | IC50 [7] | IC50 (Mu-type opioid receptor [8]) | IC50 [9]
1 | O=C1N[C@H](Cc2c[nH]c3ccccc23)C(=O)N[C@@H](Cc2cccc(O)c2)C(=O)N2CCC[C@@H]2C(=O)N[C@H]1Cc1ccccc1 | 78 nM | 37 nM | 670 nM | 0.47 |  |  |  |  |  | 
2 | CC(=O)N[C@@H](Cc1ccccc1)C(=O)N1CCC[C@@H]1C(=O)N[C@@H](Cc1ccccc1)C(=O)N[C@H](Cc1c[nH]c2ccccc12)C(N)=O | > 1000 nM | > 1000 nM | > 1000 nM |  |  |  |  |  |  | 
3 | CC(=O)N1CCC[C@@H]1C(=O)N[C@@H](Cc1ccccc1)C(=O)N[C@H](Cc1c[nH]c2ccccc12)C(=O)N[C@@H](Cc1ccccc1)C(N)=O | > 1000 nM | 340 nM | > 1000 nM |  |  |  |  |  |  | 
4 | O=C1N[C@H](Cc2c[nH]c3ccccc23)C(=O)NCC(=O)N2CCC[C@@H]2C(=O)N[C@H]1Cc1ccccc1 | 270 nM | 770 nM | > 1000 nM | 2.8 |  |  |  |  |  | 
5 | C[C@@H]1NC(=O)[C@H]2CCCN2C(=O)[C@H](Cc2ccccc2)NC(=O)[C@@H](Cc2c[nH]c3ccccc23)NC1=O (cyclo(A[dW]F[dP])) | 1300 nM | 2200 nM | > 1000 nM | 1.7 |  |  |  |  |  | 
6 | O=C1N[C@H](Cc2c[nH]c3ccccc23)C(=O)N[C@@H](Cc2ccccc2)C(=O)N2CCC[C@@H]2C(=O)N[C@H]1Cc1ccc(F)cc1 | 21 nM | 48 nM | > 1000 nM | 2.3 |  |  |  |  |  | 
7 | CC(=O)n1cc(C[C@H](N)C(=O)N[C@@H](Cc2ccccc2)C(=O)N2CCC[C@@H]2C(=O)N[C@@H](Cc2ccccc2)C(N)=O)c2ccccc21 | > 1000 nM | > 1000 nM | > 1000 nM |  |  |  |  |  |  | 
8 | C[C@@H]1NC(=O)[C@@H](Cc2c[nH]c3ccccc23)NC(=O)[C@H](Cc2ccccc2)NC(=O)[C@H]2CCCN2C1=O (cyclo(A[dP]F[dW])) | 5.2 nM | 22 nM | > 1000 nM | 4.2 | 5 nM | 48 nM |  |  |  | 
9 | O=C1N[C@H](Cc2c[nH]c3ccccc23)C(=O)N[C@@H](Cc2ccc(O)cc2)C(=O)N2CCC[C@@H]2C(=O)N[C@H]1Cc1ccccc1 | 220 nM |  | > 1000 nM |  |  |  |  |  |  | 
10 | COc1ccc(C[C@@H]2NC(=O)[C@@H](Cc3c[nH]c4ccccc34)NC(=O)[C@H](Cc3ccccc3)NC(=O)[C@H]3CCCN3C2=O)cc1 | 66 nM | 170 nM | > 1000 nM | 2.6 |  |  |  |  |  | 
11 | O=C1N[C@@H](Cc2ccccc2)C(=O)N2CCC[C@@H]2C(=O)N[C@@H](Cc2ccccc2)C(=O)N[C@H]1Cc1c[nH]c2ccccc12 (cyclo(FWF[dP])) | 29 nM | 130 nM | 2000 nM | 4.5 | 440 nM | 25 nM | 1300 nM | 47 nM | 260 nM | 2600 nM
12 | O=C1N[C@H](Cc2c[nH]c3ccccc23)C(=O)N[C@@H](Cc2ccccc2)C(=O)N2CCC[C@@H]2C(=O)N[C@H]1Cc1ccc(O)cc1 | 140 nM | 120 nM | > 1000 nM | 0.85 |  |  |  |  |  | 
13 | COc1ccc(C[C@@H]2NC(=O)[C@H]3CCCN3C(=O)[C@H](Cc3ccccc3)NC(=O)[C@@H](Cc3c[nH]c4ccccc34)NC2=O)cc1 | 14 nM | 43 nM | > 1000 nM | 3.1 |  |  |  |  |  | 
14 | O=C1N[C@H](Cc2c[nH]c3ccccc23)C(=O)N[C@@H](Cc2ccccc2)C(=O)N2CCC[C@@H]2C(=O)N[C@H]1Cc1ccccc1 (cyclo(F[dP]F[dW])) | 3.8 nM | 30 nM | > 1000 nM | 7.9 | 140 nM | 21 nM |  |  |  | 
15 | C[C@H]1NC(=O)[C@H](Cc2ccccc2)NC(=O)[C@H]2CCCN2C(=O)[C@H](Cc2ccccc2)NC1=O | > 1000 nM | > 1000 nM | > 1000 nM |  |  |  |  |  |  | 
16 | O=C1N[C@H](Cc2c[nH]c3ccccc23)C(=O)N[C@@H](Cc2ccccc2)C(=O)N2CCC[C@@H]2C(=O)N[C@H]1Cc1cccc(O)c1 | 20 nM | 40 nM | 3400 nM | 2 |  |  |  |  |  | 
17 | CC(=O)N[C@@H](Cc1ccccc1)C(=O)N1CCC[C@@H]1C(=O)N[C@@H](Cc1ccccc1)C(=O)N[C@@H](Cc1c[nH]c2ccccc12)C(N)=O | > 1000 nM | > 1000 nM | > 1000 nM |  |  |  |  |  |  | 
18 | CC(=O)N[C@@H](Cc1ccccc1)C(=O)N[C@@H](Cc1c[nH]c2ccccc12)C(=O)N[C@@H](Cc1ccccc1)C(=O)N1CCC[C@@H]1C(N)=O | > 1000 nM | > 1000 nM | > 1000 nM |  |  |  |  |  |  | 
19 | CC(=O)N[C@@H](Cc1ccccc1)C(=O)N[C@H](Cc1c[nH]c2ccccc12)C(=O)N[C@@H](Cc1ccccc1)C(=O)N1CCC[C@@H]1C(N)=O | > 1000 nM | 360 nM | > 1000 nM |  |  |  |  |  |  | 
20 | CC(=O)N[C@H](Cc1c[nH]c2ccccc12)C(=O)N[C@@H](Cc1ccccc1)C(=O)N1CCC[C@@H]1C(=O)N[C@@H](Cc1ccccc1)C(N)=O | > 1000 nM | > 1000 nM | > 1000 nM |  |  |  |  |  |  | 
21 | CC(=O)N1CCC[C@@H]1C(=O)N[C@@H](Cc1ccccc1)C(=O)N[C@@H](Cc1c[nH]c2ccccc12)C(=O)N[C@@H](Cc1ccccc1)C(N)=O | > 1000 nM | > 1000 nM | > 1000 nM |  |  |  |  |  |  | 
22 | O=C1N[C@H](Cc2c[nH]c3ccccc23)C(=O)N[C@@H](Cc2ccc(F)cc2)C(=O)N2CCC[C@@H]2C(=O)N[C@H]1Cc1ccccc1 | 28 nM | 210 nM | > 1000 nM | 7.5 |  |  |  |  |  | 
